This note sets out measurements from patent publication US20220402948A1, “EGFR INHIBITOR, COMPOSITION AND PREPARATION METHOD THEREFOR” (BETTA PHARMACEUTICALS CO., LTD., priority 2019, published 2022).

The test system of one assay is A431. Description: A431 cell proliferation assay (CellTiter Glo, 72 hours). The class given is cell-based. As to conditions: Homo sapiens, A-431, 72 h, cell proliferation, A431, 72 hours, Table 2; read-out: A431 IC50. The method, boiled down:
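A431 cells (2000/well) exposed 72 h to compound at 1000 nM down to 0.2 nM in 3-fold steps, 0.1% DMSO (0.5% for some series). Viability by CellTiter-Glo luminescence; IC50 by four-parameter nonlinear regression.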
On the technique in general: In ATP-based viability assays light output follows the ATP content of the culture.

Assay [1] deals with Ba/F3 cells with EGFR Δ19del/T790M/C797S mutation gene stably overexpressed (Homo sapiens, UniProt P00533, T790M/C797S, cells depend on it, form not given). Description: Ba/F3-Δ19del/T790M/C797S cell proliferation assay (CellTiter Glo, 72 hours). The class given is cell-based. Particulars: Table 2, read-out: EGFR Δ19del/T790M/C797S IC50. The method, boiled down: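 Ba/F3 cells stably overexpressing wild-type EGFR or EGFR Δ19del/T790M/C797S were seeded at 2000 cells/well and incubated 72 h with compound. Viability was read by CellTiter-Glo luminescence, and IC50 came from a four-parameter logistic fit of signal against log concentration.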

Assay [2] has as its target Ba/F3-EGFR wild-type cell line (Homo sapiens, UniProt P00533). Kind of assay: Ba/F3-EGFR wild-type cell proliferation assay (CellTiter Glo, 72 hours). Particulars: Table 2, read-out: EGFR WT IC50. Type of assay: cell-based. How it is done: Cell line: Ba/F3 cells with EGFR Δ19del/T790M/C797S mutation gene stably overexpressed named Ba/F3-Δ119del/T90M/C797S, and A431 and Ba/F3-EGFR wild-type cell line.
a) Centrifuge the growth cells in logarithmic phase at 1000 rpm for 5 minutes, resuspend the cells in culture medium, and then count the cells;
b) Inoculate the cells into a 96-well cell culture plate with a density of 2000 cells/well;
b) Incubate cells in an incubator for another 72 hours.
a) Take out the 96-well cell culture plate and add 50 μl CTG reagent (CellTiter Glo kit, promega, Cat #G7573);
b) Shake the plate for 2 minutes and let cool at room temperature for 10 minutes;
c) Read luminous signal value with PerkinElmer reader,
Analysis of Experimental Data
The data were analyzed by GraphPad Prism 6.0 software to obtain the fitting curve of compound activity.
Y=Min+(Max−Min)/(1+10^((Log IC50−X)*slope));
X: Logarithm of compound concentration; Y: luminous signal.

The target of the next assay is EGFRΔ19del/T790M/C797S (Homo sapiens, UniProt P00533, T790M/C797S, form not given). Description: EGFR Δ19del/T790M/C797S kinase test (mobility variation analysis, Caliper EZ Reader). The class given is biochemical. Particulars: kinase enzymatic activity, Table 1. The method in brief: (§1)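 Kinase pre-incubated with compound 10 minutes at room temperature, then ATP plus peptide substrate added; substrate conversion read by mobility shift after stop solution. Percent inhibition normalized to no-compound and no-enzyme controls; IC50 from variable-slope log(inhibitor) fit.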

For another assay, the target named is IGF1R (Homo sapiens, UniProt P08069). Description: IGF1R kinase test (mobility variation analysis, Caliper EZ Reader). Type of assay: biochemical. As to conditions: kinase enzymatic activity, Table 1; read-out: EGFR IGF1R IC50. The method in brief: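 Kinase preincubated 10 min at room temperature with compound (10-point 3-fold series, top 3000 nM), then ATP and substrate added and reacted at room temperature. Substrate conversion read by mobility-shift (Caliper EZ Reader); % inhibition vs no-enzyme and no-compound controls fitted to variable-slope curve for IC50.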

A further assay concerns the target EGFR WT (Homo sapiens, UniProt P00533). Description: EGFR WT kinase test (mobility variation analysis, Caliper EZ Reader). The class given is biochemical. Particulars: kinase enzymatic activity, Table 1. The method in brief:
as §1

The IC50 is the midpoint of a concentration-inhibition curve.

Ba/F3 cells with EGFR Δ19del/T790M/C797S mutation gene stably overexpressed, sequence (P00533 with tags, fused parts or gaps DEL746-750/T790M/C797S, form open): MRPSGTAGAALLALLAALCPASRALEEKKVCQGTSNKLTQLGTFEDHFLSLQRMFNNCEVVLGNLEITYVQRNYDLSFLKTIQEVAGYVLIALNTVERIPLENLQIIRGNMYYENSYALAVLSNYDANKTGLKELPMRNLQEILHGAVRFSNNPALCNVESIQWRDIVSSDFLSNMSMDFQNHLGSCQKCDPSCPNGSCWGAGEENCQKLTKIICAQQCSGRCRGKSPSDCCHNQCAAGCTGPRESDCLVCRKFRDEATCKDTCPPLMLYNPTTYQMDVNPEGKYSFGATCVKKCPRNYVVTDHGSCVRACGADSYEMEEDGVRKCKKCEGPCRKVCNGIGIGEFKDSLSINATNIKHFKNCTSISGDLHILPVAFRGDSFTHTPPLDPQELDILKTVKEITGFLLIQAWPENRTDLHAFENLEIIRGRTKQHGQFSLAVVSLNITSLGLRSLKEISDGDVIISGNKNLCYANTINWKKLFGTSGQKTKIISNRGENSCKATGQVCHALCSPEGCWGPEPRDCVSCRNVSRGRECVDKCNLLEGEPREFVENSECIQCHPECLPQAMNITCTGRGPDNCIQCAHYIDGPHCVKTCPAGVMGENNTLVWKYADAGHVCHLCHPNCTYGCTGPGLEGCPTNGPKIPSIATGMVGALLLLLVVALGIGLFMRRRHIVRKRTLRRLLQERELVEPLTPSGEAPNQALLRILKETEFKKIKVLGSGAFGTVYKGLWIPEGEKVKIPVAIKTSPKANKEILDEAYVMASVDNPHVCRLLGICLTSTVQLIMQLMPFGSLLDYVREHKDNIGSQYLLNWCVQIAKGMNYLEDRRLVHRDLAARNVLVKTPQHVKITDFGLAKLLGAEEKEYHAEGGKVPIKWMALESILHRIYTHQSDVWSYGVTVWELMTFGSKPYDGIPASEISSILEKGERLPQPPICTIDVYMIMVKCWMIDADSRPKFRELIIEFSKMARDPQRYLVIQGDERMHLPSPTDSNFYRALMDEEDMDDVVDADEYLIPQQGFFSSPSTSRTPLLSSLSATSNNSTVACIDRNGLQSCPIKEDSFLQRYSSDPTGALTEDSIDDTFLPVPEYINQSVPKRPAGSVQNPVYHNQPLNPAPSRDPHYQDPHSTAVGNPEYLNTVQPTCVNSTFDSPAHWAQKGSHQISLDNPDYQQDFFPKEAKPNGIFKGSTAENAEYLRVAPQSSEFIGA
Ba/F3-EGFR wild-type cell line, sequence (P00533 whole entry, stated change not applied): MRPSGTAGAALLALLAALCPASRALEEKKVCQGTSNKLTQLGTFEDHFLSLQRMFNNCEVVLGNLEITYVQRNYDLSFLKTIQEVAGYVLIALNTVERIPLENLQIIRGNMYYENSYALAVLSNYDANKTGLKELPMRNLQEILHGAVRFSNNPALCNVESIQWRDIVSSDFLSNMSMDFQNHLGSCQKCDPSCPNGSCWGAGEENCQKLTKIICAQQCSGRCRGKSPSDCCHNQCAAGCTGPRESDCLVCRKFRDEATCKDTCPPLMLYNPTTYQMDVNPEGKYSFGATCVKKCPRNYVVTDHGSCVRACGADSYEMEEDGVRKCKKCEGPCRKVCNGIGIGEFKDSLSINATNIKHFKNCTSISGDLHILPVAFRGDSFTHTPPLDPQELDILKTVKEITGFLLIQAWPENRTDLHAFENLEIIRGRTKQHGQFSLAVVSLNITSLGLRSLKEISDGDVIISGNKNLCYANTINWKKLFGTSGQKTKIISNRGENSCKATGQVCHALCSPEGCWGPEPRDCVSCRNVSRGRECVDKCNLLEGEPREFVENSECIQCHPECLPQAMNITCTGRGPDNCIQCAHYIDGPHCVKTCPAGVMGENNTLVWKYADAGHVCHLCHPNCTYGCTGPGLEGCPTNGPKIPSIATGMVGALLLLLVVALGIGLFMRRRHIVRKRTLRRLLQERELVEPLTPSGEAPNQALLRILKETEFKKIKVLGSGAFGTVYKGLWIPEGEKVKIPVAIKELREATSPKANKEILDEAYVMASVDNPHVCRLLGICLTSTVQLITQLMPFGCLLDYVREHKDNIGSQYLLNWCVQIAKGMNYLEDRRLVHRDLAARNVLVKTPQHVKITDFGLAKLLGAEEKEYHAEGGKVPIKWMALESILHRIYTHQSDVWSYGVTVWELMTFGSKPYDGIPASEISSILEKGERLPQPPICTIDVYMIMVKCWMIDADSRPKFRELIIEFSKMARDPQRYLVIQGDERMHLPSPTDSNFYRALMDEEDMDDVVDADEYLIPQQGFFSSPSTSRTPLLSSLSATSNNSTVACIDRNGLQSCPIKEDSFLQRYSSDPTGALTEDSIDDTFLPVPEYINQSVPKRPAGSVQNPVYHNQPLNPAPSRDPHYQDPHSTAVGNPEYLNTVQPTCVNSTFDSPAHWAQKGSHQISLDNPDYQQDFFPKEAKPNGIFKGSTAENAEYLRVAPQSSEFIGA
EGFRΔ19del/T790M/C797S, sequence (P00533 with tags, fused parts or gaps DEL746-750/T790M/C797S, form open): as the sequence (P00533 with tags, fused parts or gaps DEL746-750/T790M/C797S, form open) above
EGFR WT, sequence (P00533 25-1210): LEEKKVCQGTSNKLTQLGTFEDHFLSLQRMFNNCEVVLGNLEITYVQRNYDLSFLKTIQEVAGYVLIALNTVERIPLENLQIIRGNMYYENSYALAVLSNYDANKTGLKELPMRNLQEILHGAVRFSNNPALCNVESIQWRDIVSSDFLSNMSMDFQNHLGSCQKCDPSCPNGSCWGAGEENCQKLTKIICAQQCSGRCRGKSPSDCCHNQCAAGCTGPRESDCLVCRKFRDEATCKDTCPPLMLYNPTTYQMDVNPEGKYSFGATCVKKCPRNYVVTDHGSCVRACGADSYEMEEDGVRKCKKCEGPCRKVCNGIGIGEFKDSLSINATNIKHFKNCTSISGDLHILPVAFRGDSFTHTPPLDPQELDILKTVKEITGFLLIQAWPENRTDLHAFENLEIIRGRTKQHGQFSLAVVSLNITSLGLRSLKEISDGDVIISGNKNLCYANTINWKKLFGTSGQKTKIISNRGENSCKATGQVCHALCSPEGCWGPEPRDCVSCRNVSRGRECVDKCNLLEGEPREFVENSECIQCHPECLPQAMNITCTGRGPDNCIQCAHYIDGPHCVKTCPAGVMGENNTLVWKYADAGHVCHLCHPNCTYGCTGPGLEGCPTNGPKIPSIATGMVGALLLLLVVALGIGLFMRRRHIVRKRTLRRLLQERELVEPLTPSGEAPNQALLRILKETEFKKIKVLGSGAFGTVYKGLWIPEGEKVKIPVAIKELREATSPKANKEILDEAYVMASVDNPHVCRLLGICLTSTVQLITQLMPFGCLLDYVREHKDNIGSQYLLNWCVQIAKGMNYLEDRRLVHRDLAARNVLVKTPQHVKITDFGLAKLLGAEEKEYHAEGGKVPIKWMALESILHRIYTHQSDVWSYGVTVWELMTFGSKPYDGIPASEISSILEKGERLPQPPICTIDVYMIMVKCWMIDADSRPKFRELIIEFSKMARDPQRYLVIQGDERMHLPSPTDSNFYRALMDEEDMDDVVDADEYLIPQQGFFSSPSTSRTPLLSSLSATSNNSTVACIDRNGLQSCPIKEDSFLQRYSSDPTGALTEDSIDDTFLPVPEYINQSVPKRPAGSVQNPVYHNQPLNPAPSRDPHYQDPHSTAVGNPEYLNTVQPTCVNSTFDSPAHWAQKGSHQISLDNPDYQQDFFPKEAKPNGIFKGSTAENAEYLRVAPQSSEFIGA

With `CCc1cc(Nc2ncc(Br)c(Nc3ccc(-c4cnn(C(C)C)n4)cc3P(C)(C)=O)n2)c(OC)cc1N1CCC(N2CCN(C)CC2)CC1` [Compound 85, (2-((5-Bromo-2-((5-ethyl-2-methoxy-4-(4-(4-methylpiperazin-1-yl)piperidin-1-yl)phenyl)amino)pyrimidin-4-yl)amino)-5-(2-isopropyl-2H-l,2,3-triazol-4-yl)phenyl)dimethylphosphine oxide], in the assay on A431, the 50% inhibitory concentration (IC50) is 5770 nM. Also, the GI50 in assay [1] was 28.6 nM; in assay [2] it was 1120 nM.
Take `CCc1cc(Nc2ncc(Br)c(Nc3ccc(-c4cnn(C)c4)cc3P(C)(C)=O)n2)c(OC)cc1N1CCC(N2CCCC2)CC1` [Compound K-001]: the 50% inhibitory concentration (IC50) in the assay on A431 turned out to be 371 nM. Moreover, the GI50 was 15.6 nM in assay [1] and 335 nM in assay [2].
As to `COc1cnn(-c2ccc(Nc3nc(Nc4cc(C)c(N5CCOCC5)c(OC)c4)ncc3Br)c(P(C)(C)=O)c2)c1` [Compound K-031, (2-((5-Bromo-2-((3-methoxy-5-methyl-4-morpholinophenyl)amino)pyrimidin-4-yl)amino)-5-(4-methoxy-1H-pyrazol-1-yl)phenyl)dimethylphosphine oxide], the IC50 was 1.4 nM against EGFRΔ19del/T790M/C797S, 394 nM at IGF1R and 1130 nM against EGFR WT. Also, the GI50 in assay [1] was found to be 16.8 nM; in assay [2], 150 nM.
With `CCc1cc(Nc2ncc(Cl)c(Nc3ccc(-c4nn(C)cc4C#N)cc3P(C)(C)=O)n2)c(OC)cc1N1CCC(N2CCN(C)CC2)CC1` [Compound K-060, 3-(4-((5-Chloro-2-((5-ethyl-2-methoxy-4-(4-(4-methylpiperazin-1-yl)piperidin-1-yl)phenyl)amino)pyrimidin-4-yl)amino)-3-(dimethylphosphineoxide)phenyl)-1-methyl-1H-pyrazol-4-carbonitrile], in assay [2], the GI50 turned out to be 293 nM.
For `CCc1cc(Nc2ncc(Br)c(Nc3ccc(-c4cnc(C5CC5)cn4)cc3P(C)(C)=O)n2)c(OC)cc1N1CCC(N2CCN(C)CC2)CC1` [Compound K-064, (2-((5-Bromo-2-((5-ethyl-2-methoxy-4-(4-(4-methylpiperazin-1-yl)piperidin-1-yl)phenyl)amino)pyrimidin-4-yl)amino)-5-(5-cyclopropylpyrazin-2-yl)phenyl)dimethylphosphine oxide], the GI50 in assay [2] was 152 nM.
Regarding `CCc1cc(Nc2ncc(Br)c(Nc3ccc(-c4cnc(C)cn4)cc3P(C)(C)=O)n2)c(OC)cc1N1CCC(N2CCN(C)CC2)CC1` [Compound K-065, (2-((5-Bromo-2-((5-ethyl-2-methoxy-4-(4-(4-methylpiperazin-1-yl)piperidin-1-yl)phenyl)amino)pyrimidin-4-yl)amino)-5-(5-methylpyrazin-2-yl)phenyl)dimethylphosphine oxide], in assay [2], the GI50 was 132 nM.
Still for that read-out and setting: the result for `CCc1cc(Nc2ncc(Br)c(Nc3ccc(-c4cnc(C)c(C)n4)cc3P(C)(C)=O)n2)c(OC)cc1N1CCC(N2CCN(C)CC2)CC1` [Compound K-067, (2-((5-Bromo-2-((5-ethyl-2-methoxy-4-(4-(4-methylpiperazin-1-/l)piperidin-1-yl)phenyl)amino)pyrimidin-4-yl)amino)-5-(5,6-dimethylpyrazin-2-yl)phenyl)dimethylphosphine oxide] reads 417 nM; that for `CCc1cc(Nc2ncc(Br)c(Nc3ccc(-c4ccc(C)nc4)cc3P(C)(C)=O)n2)c(OC)cc1N1CCC(N2CCN(C)CC2)CC1` [Compound K-070, (2-((5-Bromo-2-((5-ethyl-2-methoxy-4-(4-(4-methylpiperazin-1-yl)piperidin-1-yl)phenyl)amino)pyrimidin-4-yl)amino)-5-(6-methylpyridin-3-yl)phenyl)dimethylphosphine oxide], 238 nM.
